Reference: publication PMC10126514, “The interaction of peptide inhibitors and Aβ protein: Binding mode analysis, inhibition of the formation of Aβ aggregates, and then exert neuroprotective effects” (Frontiers in Aging Neuroscience, 2023)
Entries after “also recorded” stand apart in the source; their conditions may differ. Residues, ends and D or L forms follow the SMILES beside them.

How the values were obtained:
Aβ1–42 aggregation = test: ThT fluorescence, inhibition of Aβ1–42 aggregation; type: biochemical, Human; conditions: for ThT fluorescence intensity vs Aβ group: PBS, ex 440/em 480 nm
Experimental: ThT is a chemical fluorescent dye. […] Based on this fluorescence phenomenon, ThT is used as a kind of fluorescent indicator to detect the degree of aggregation of Aβ.
Take about 10 μL of the sample, dilute it 20 times with ThT solution, and read the fluorescence intensity value with a microplate reader, 440 nm is the excitation wavelength, and 480 nm is the emission wavelength, and the bandwidth is 5 nm. […] The sample was repeated five times and the average value was taken.

PC12 cells [1] = type: cell-based, Rat
Experimental: Pipette the cultured cells in a cell culture flask repeatedly to make them evenly distributed. Use a pipete to pipete 10 μL of cell suspension and transfer to a cell counting plate for counting. Count under a microscope to calculate the number of living cells distributed in a large square composed of 16 squares on the cytometer. Cell density (pcs / mL) = (sum of cell count/4) × 10^4 Calculate the cell concentration, repeat counting 2–3 times for each sample (the value should not be too different each time, otherwise the operation should be repeated). If there are less than 5 cells in each large square, you need to re-centrifuge to adjust the cell concentration.
Use CCK-8 kit to detect cell viability, reflecting the cytotoxicity of peptide inhibitors themselves. The counted PC12 cells were plated at 100 μL/well (8 × 10^4 cells/well). After put the 96-well plate at 37°C for 12 h, discard the medium, add 100 μL of medium containing different concentrations of peptide inhibitors to each well, and continue to culture 24 h. […] The wells with DMEM medium solution containing no peptide inhibitors but containing cells were used as the control group.
Cell Viability(%)=ODadministration group−[…]ODcontrol group−ODblank group×100%

Aβ1–42 = molecular target: T1, Aβ1–42 (Homo sapiens, UniProt P05067); test: SPR affinity of peptide and Aβ1–42; type: binding; conditions: for Binding ability ranking by KD / Binding phase of SPR kinetic curve / Dissociation phase of SPR kinetic curve: SPR, qualitative
T1 construct: purchased GL Biochem Ltd. (Shanghai)
Experimental: Surface Plasmon Resonance (SPR) is a sensitive surface analysis technique that detects changes in dielectric constant caused by molecules adsorbed on heavy metal films. In this study, the 1-(3-Dimethylaminopropyl)-3-ethylcarbodiimide hydrochloride (EDC) and N-Hydroxy succinimide (NHS) in the coupling kit were, respectively, dissolved in 1 mL of activation buffer, divided into 10 parts, 100 μL/part, and stored at −20°C for later use. Before the experiment, first install the CM5 chip in the machine and wash it with HBS-EP buffer 3 times. […] After the experiment is over, use the Evaluation software to analyze the results, and use Flow Cell2 to subtract the background signal of channel 1 as the experimental result. The 1:1 binding method is used for fitting calculation and analysis of affinity parameters: binding rate constant ka (1/Ms), dissociation rate constant kd (1/s) and equilibrium dissociation constant KD (M), KD = kd/ ka, the smaller the KD value, the stronger the affinity.

PC12 cells [2] = conditions: CCK-8, co-incubated with Aβ1–42 72 h
Experimental: Rat adrenal pheochromocytoma (PC12) cells were donated by Zhengzhou University School of Basic Medicine (#CRL-1721; RRID: CVCL-0481) in DMEM containing 10% fetal bovine serum, 1% penicillin and 1% streptomycin, culture in a cell incubator with 5% CO2 and 37°C, and passage once every 3 days.
Add 10 μL of CCK-8 solution to each well and continue to incubate for 2 h. Add 10 μL of CCK-8 solution to each well and continue to incubate for 2 h. The wells with normal DMEM medium and cell solution were used as the control group. The wells with 100 μL DMEM medium and 10 μL CCK-8 solution but no cells were used as the blank control, and the absorbance was measured at 450 nm.

PC12 cells [3] = conditions: cited from earlier work
Description: Abnormally precipitated Aβ in amyloid plaques becomes one of the hallmark proteins of brain nerve damage in AD patients, and promotes the deterioration of AD. The accumulation of Aβ protein is caused by the interaction between the hydrophobic center and the C-terminal molecule ([Kapadia et al., 2021]). At present, the development of anti-Aβ aggregation compounds is a promising approach in the treatment of AD, and many clinical trials are ongoing. […] However, these peptides have high specificity and low toxicity, which will make them candidate drugs for peptide inhibitors against Aβ aggregation ([Fosgerau and Hoffmann, 2015]). Peptides designed by computer simulation and applied to Alzheimer’s disease are becoming more and more popular and welcomed by researchers. At present, the peptide inhibitors of Aβ aggregation include LVFF, KLVFF, KLVFF modified peptide (QKL ...

apoptosis caused by Aβ = conditions: ref Hadipour et al., 2020; cited from earlier work
Description: Abnormally precipitated Aβ in amyloid plaques becomes one of the hallmark proteins of brain nerve damage in AD patients, and promotes the deterioration of AD. The accumulation of Aβ protein is caused by the interaction between the hydrophobic center and the C-terminal molecule ([Kapadia et al., 2021]). At present, the development of anti-Aβ aggregation compounds is a promising approach in the treatment of AD, and many clinical trials are ongoing.

Aβ1–42 oligomerization = conditions: ref Takahashi and Mihara, 2008, cited from earlier work
Description: (§1) In recent years, through the emergence of peptides that inhibit the aggregation of Aβ, extensive research has been conducted on peptides for the treatment of Alzheimer’s disease. However, these peptides have high specificity and low toxicity, which will make them candidate drugs for peptide inhibitors against Aβ aggregation ([Fosgerau and Hoffmann, 2015]). Peptides designed by computer simulation and applied to Alzheimer’s disease are becoming more and more popular and welcomed by researchers. At present, the peptide inhibitors of Aβ aggregation include LVFF, KLVFF, KLVFF modified peptide (QKL ...

Aβ aggregation = conditions: cited from earlier work; for Aβ aggregation and toxicity: ref Cheng et al., 2012
Description: as §1

[4] = test system: rat primary cortical neurons; set-up: method as in Pradhan et al., 2019; conditions: ref Pradhan et al., 2019; cited from earlier work
[5] = peptide 50 μM, Aβ1–42 25 μM, 37°C, 24 h, ThT
[6] = peptide 50 μM, Aβ1–42 25 μM, 37°C, 24 h, n = 5 mean

T1 sequence (P05067 672-713 limits assumed): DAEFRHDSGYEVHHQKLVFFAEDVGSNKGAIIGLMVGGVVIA

CC(=O)N[C@@H](Cc1ccc(O)cc1)C(=O)N[C@H](C(=O)N[C@@H](CCCNC(=N)N)C(=O)N[C@@H](Cc1c[nH]cn1)C(=O)N[C@@H](Cc1c[nH]cn1)C(=O)N[C@@H](Cc1c[nH]cn1)C(=O)N[C@@H](Cc1ccc(O)cc1)C(=O)N[C@H](C(=O)N[C@@H](CCCNC(=N)N)C(=O)N[C@@H](Cc1c[nH]cn1)C(=O)N[C@@H](Cc1c[nH]cn1)C(=O)N[C@@H](Cc1c[nH]cn1)C(N)=O)C(C)C)C(C)C [P9] (Ac-YVRHHHYVRHHH-NH2)
Inhibitory effect on Aβ aggregation (Aβ1–42 aggregation; [5]): no inhibitory effect on Aβ aggregation | ThT fluorescence intensity vs Aβ group (Aβ1–42 aggregation; [6]): increased, but the difference is not statistically significant (p > 0.05) | Cell viability at 6.25 μM (PC12 cells [1]): began to decrease significantly (p < 0.05) | Cell viability at 25, 50, 100 and 200 μM (PC12 cells [1]): decreased significantly, with extremely significant differences (p < 0.01) | Kd (Aβ1–42): 14 µM | Binding ability ranking by KD (Aβ1–42): the weakest | Binding phase of SPR kinetic curve (Aβ1–42): the curve rises steadily, and it takes a long time to reach saturation | Dissociation phase of SPR kinetic curve (Aβ1–42): relatively slow in the dissociation phase

CC(=O)N[C@@H](Cc1ccc(O)cc1)C(=O)N[C@H](C(=O)N[C@@H](CCCNC(=N)N)C(=O)N[C@@H](Cc1c[nH]cn1)C(=O)N[C@@H](CO)C(=O)N[C@H](C(=O)N[C@@H](Cc1ccc(O)cc1)C(=O)N[C@H](C(=O)N[C@@H](CCCNC(=N)N)C(=O)N[C@@H](Cc1c[nH]cn1)C(=O)N[C@@H](CO)C(=O)N[C@H](C(N)=O)C(C)C)C(C)C)C(C)C)C(C)C [P11] (Ac-YVRHSVYVRHSV-NH2)
Inhibitory effect on Aβ aggregation (Aβ1–42 aggregation; [5]): certain inhibitory ability on Aβ aggregation | ThT fluorescence intensity vs Aβ group (Aβ1–42 aggregation; [6]): decreased, but the difference was not statistically significant (p > 0.05) | Cell viability at 3.125 μM (PC12 cells [1]): cell viability began to decrease significantly at low concentration (3.125 μM) of P11 (p < 0.05) | Kd (Aβ1–42): 20.5 µM | Binding phase of SPR kinetic curve (Aβ1–42): the curve rises steadily, and it takes a long time to reach saturation | Dissociation phase of SPR kinetic curve (Aβ1–42): relatively slow in the dissociation phase

CC(=O)N[C@@H](Cc1ccc(O)cc1)C(=O)N[C@H](C(=O)N[C@@H](CCCNC(=N)N)C(=O)N[C@@H](Cc1c[nH]cn1)C(=O)N[C@@H](CC(=O)O)C(=O)N[C@@H](CC(C)C)C(=O)N[C@@H](Cc1ccc(O)cc1)C(=O)N[C@H](C(=O)N[C@@H](CCCNC(=N)N)C(=O)N[C@@H](Cc1c[nH]cn1)C(=O)N[C@@H](CC(=O)O)C(=O)N[C@@H](CC(C)C)C(N)=O)C(C)C)C(C)C [P12] (Ac-YVRHDLYVRHDL-NH2)
Inhibitory effect on Aβ aggregation (Aβ1–42 aggregation; [5]): no inhibitory effect on Aβ aggregation | ThT fluorescence intensity vs Aβ group (Aβ1–42 aggregation; [6]): increased, but the difference is not statistically significant (p > 0.05) | Cell viability at 6.25 μM (PC12 cells [1]): significant effect on the viability of PC12 cells at 6.25 μM (p < 0.05) | Kd (Aβ1–42): 0.327 µM | Binding ability ranking by KD (Aβ1–42): the strongest | Binding phase of SPR kinetic curve (Aβ1–42): rises rapidly at the beginning of binding and reaches saturation in a short time | Dissociation phase of SPR kinetic curve (Aβ1–42): the curve drops rapidly and the dissociation is completed

CC(=O)N[C@@H](Cc1ccc(O)cc1)C(=O)N[C@H](C(=O)N[C@@H](CCCNC(=N)N)C(=O)N[C@@H](Cc1c[nH]cn1)C(=O)N[C@@H](CC(C)C)C(=O)N[C@@H](CCCCN)C(=O)N[C@@H](Cc1ccc(O)cc1)C(=O)N[C@H](C(=O)N[C@@H](CCCNC(=N)N)C(=O)N[C@@H](Cc1c[nH]cn1)C(=O)N[C@@H](CC(C)C)C(=O)N[C@@H](CCCCN)C(N)=O)C(C)C)C(C)C [P21] (Ac-YVRHLKYVRHLK-NH2)
Inhibitory effect on formation of Aβ1–42 aggregates at ratio 1:1 (Aβ1–42 aggregation; incubated with Aβ1–42 at a ratio of 1:1, ThT, listed as YVRHLKYVRHLK): significant inhibitory effect on the formation of Aβ1–42 aggregates when incubated with Aβ1–42 at a ratio of 1:1 (p < 0.05) | Inhibitory effect on Aβ aggregation (Aβ1–42 aggregation; [5]): strong inhibitory ability on Aβ aggregation; also recorded: good inhibitory effect on the protein aggregation of Aβ1–42 | Inhibition of Aβ1–42 aggregation (Aβ1–42 aggregation; peptide 50 μM, Aβ1–42 25 μM, 37°C, 24 h, ThT, n = 5 mean, Aβ alone = 100% fluorescence): 100% | ThT fluorescence intensity vs Aβ group (Aβ1–42 aggregation; [6]): significantly lower than that of the Aβ group (p < 0.05) | Cell viability at ratios above 1:1 (1:2, 1:4) (PC12 cells [2]; after ratio 1:1, increasing P21 (1:2, 1:4)): cell viability continued to increase | Cell viability at ratio 1:4 (PC12 cells [2]; ratio 1:4): reaching the maximum at 1:4, which was close to the normal level | Cell viability at 25 μM (PC12 cells [1]): significantly reduced at 25 μM (p < 0.05) | Toxicity to PC12 cells at 50 μM (PC12 cells [1]): less toxic to PC12 cells at a concentration of 50 μM | Kd (Aβ1–42): 53.8 µM | Binding phase of SPR kinetic curve (Aβ1–42): rises rapidly at the beginning, but slowly reaches saturation in the following time, and the binding rate is faster | Dissociation phase of SPR kinetic curve (Aβ1–42): dissociates relatively quickly

CC(C)=CCC[C@@H](C)[C@H]1CC[C@@]2(C)C3=C(CC[C@]12C)[C@@]1(C)CC[C@H](O)C(C)(C)[C@@H]1CC3 [lanosterol]
Aβ-induced cytotoxicity in PC12 cells (PC12 cells [3]; ref Zhou et al., 2019): reduce the Aβ-induced cytotoxicity in PC12 cells

CC(C)=CCC/C(C)=C/CC/C(C)=C/CC/C(C)=C/CC1=C(C)C(=O)c2ccccc2C1=O [vitamin K2]
Apoptosis caused by Aβ accumulation (apoptosis caused by Aβ): significantly reduced | Ratio of Bax/Bcl-2 (apoptosis caused by Aβ): decreased

Ac-KQKLLLFLEE-NH2
Aβ1–42 oligomerization (Aβ1–42 oligomerization; co-assembles with mature Aβ1–42 fibrils): effectively inhibit Aβ1–42 oligomerization | Self-assembly (Aβ1–42 oligomerization): form amyloid fibrils

H2N-KLVFF (4-I) -CONH2 [iodinated KLVFF]
Anti-aggregation activity vs other halogenated peptides (Aβ aggregation; 10 μM peptide, 10 μM Aβ, 1:1, ref Khalili Samani and Mofid, 2020): show the best resistance compared to other halogenated peptides

KLVFFAE [amyloid β-sheet mimics ; KLVFFAE (Aβ16–22)]
Aβ aggregation and toxicity (Aβ aggregation): antagonizing Aβ protein aggregation and reducing Aβ toxicity

LFFFAED [amyloid β-sheet mimics ; LFFFAED (Aβ17–23)]
Aβ aggregation and toxicity (Aβ aggregation): antagonizing Aβ protein aggregation and reducing Aβ toxicity

QKLVFF
Formation of Aβ fibers (Aβ aggregation; ref Findeis et al., 1999): inhibiting the formation of Aβ fibers

Ser-Leu-Lys-Pro [SLKP, tetrapeptide]
Neurite growth [4]: promoted significant neurite growth | Neuroprotection against Aβ-mediated toxicity [4]: significant neuroprotection against Aβ-mediated toxicity

pituitary adenylate cyclase activating polypeptide [PACAP]
Aβ-induced cell death in PC12 cells (PC12 cells [3]; ref Onoue et al., 2002): attenuates Aβ-induced cell death in PC12 cells by increasing cAMP | Caspase-3 (PC12 cells [3]; ref Onoue et al., 2002): inactivation of apoptotic factor (caspase-3)
